Reference: BigSolDB 2.1

O=C(O)Cc1c[nH]c2ccccc12
solubility (mole fraction)
Conditions	278.15 K	283.15 K	288.15 K	293.15 K	298.15 K	303.15 K	308.15 K	313.15 K	318.15 K	323.15 K
in 1,4-dioxane	–	–	2.06e-05	2.2e-05	2.35e-05	2.51e-05	2.69e-05	2.89e-05	3.12e-05	3.38e-05
in DMF	2.98e-05	3.12e-05	3.29e-05	3.47e-05	3.67e-05	3.9e-05	4.16e-05	4.45e-05	4.74e-05	5.07e-05
in DMSO	–	–	–	3.73e-05	3.95e-05	4.2e-05	4.45e-05	4.77e-05	5.12e-05	5.48e-05
in acetone	2.49e-05	2.6e-05	2.73e-05	2.89e-05	3.07e-05	3.26e-05	3.49e-05	3.73e-05	3.98e-05	4.25e-05
in acetonitrile	6.51e-06	6.98e-06	7.47e-06	8.03e-06	8.68e-06	9.36e-06	1.01e-05	1.1e-05	1.2e-05	1.3e-05
in chloroform	2.88e-06	2.99e-06	3.11e-06	3.29e-06	3.48e-06	3.62e-06	3.88e-06	4.07e-06	4.34e-06	4.61e-06
in ethanol	1.17e-05	1.25e-05	1.35e-05	1.47e-05	1.6e-05	1.73e-05	1.86e-05	2.03e-05	2.22e-05	2.41e-05
in ethyl acetate	3.44e-05	3.64e-05	3.85e-05	4.09e-05	4.32e-05	4.58e-05	4.85e-05	5.13e-05	5.43e-05	5.76e-05
in isopropanol	2.15e-05	2.27e-05	2.41e-05	2.56e-05	2.71e-05	2.88e-05	3.1e-05	3.34e-05	3.58e-05	3.88e-05
in methanol	8.95e-06	9.76e-06	1.05e-05	1.17e-05	1.27e-05	1.38e-05	1.53e-05	1.67e-05	1.83e-05	1.99e-05
in n-butanol	2.78e-05	2.9e-05	3.04e-05	3.2e-05	3.39e-05	3.6e-05	3.83e-05	4.09e-05	4.34e-05	4.65e-05
in n-propanol	1.45e-05	1.54e-05	1.65e-05	1.8e-05	1.93e-05	2.08e-05	2.24e-05	2.42e-05	2.62e-05	2.85e-05
